This note sets out measurements from patent US20090087420A1, “STABLE SOLUTION OF REDUCED COENZYME Q” (Kaneka Corporation, priority 2001, published 2009).

This data set is described as follows: Oxidation stability of reduced coenzyme Q10 solubilized with a surfactant during air storage. In kind it is physicochemical. The note with it: for period of stable storage: 0.05% by weight reduced coenzyme Q10, air storage at 23° C. (FIG. 4). How it is done: A solution of reduced coenzyme Q10 using a surfactant was prepared by the method described below, and the oxidation stability under storage was evaluated. As the surfactant, Polysolvate 80 (Tween 80) or polyoxyethylene hardened castor oil (HCO 60) was used, and an aqueous solution of 1% by weight or 0.1% by weight of the surfactant was prepared. Then, the reduced coenzyme Q10 was added to the aqueous solution so that the final concentration of the solution was 0.05% by weight. […] In FIG. 4, each value is an average with n=2. […] The results of this test indicate that with a surfactant concentration of 0.1% by weight, the reduced coenzyme Q10 can be stably stored at 23° C. for about 1 month. […] Therefore, when preparing a solution or emulsion with a surfactant, the concentration of the surfactant used is decreased to prepare a solution which can be stored for a longer period of time. A solution or emulsion with 1% by weight or more of a surfactant can be used under conditions in which the solution or emulsion is prepared before use, or the solution or emulsion is stored for a short period or stored in an airtight condition such as a completely anaerobic condition.

On to `COc1c(O)c(C)c(C/C=C(\C)CC/C=C(\C)CC/C=C(\C)CC/C=C(\C)CC/C=C(\C)CC/C=C(\C)CC/C=C(\C)CC/C=C(\C)CC/C=C(\C)CCC=C(C)C)c(O)c1OC` [reduced coenzyme Q10], for which the “period of stable storage” value by setting is: (surfactant (Tween 80 or HCO 60) concentration 0.1% by weight) “about 1 month”; (surfactant (Tween 80 or HCO 60) concentration 1% by weight) 1 week. Further, the “oxidation after the stable period (in words)” value (surfactant concentration 1% by weight, after 1 week of air storage at 23° C.) is recorded as “rapidly oxidized”.
